Test results from EPA's ToxValDB 9.5 (doi:10.2903/j.efsa.2016.4453).
Values joined by “and” are separate entries in the source; they are usually repeats but may differ in a detail not shown here. Equal entries are not always repeated.

Legend:
Anas platyrhynchos = conditions: acute; oral; unspecified; mortality
Apis mellifera = conditions: acute, mortality
Canidae = conditions: chronic; duration: 1 years; oral; Dog Other; body weight
Coturnix japonica = conditions: acute; oral; mortality
Folsomia candida = conditions: chronic/long-term; duration: 28 days; reproduction
Oncorhynchus mykiss = conditions: acute; duration: 96 hours; mortality
Plant = conditions: chronic/long-term; duration: 6 weeks
Salmo trutta ssp. fario = conditions: chronic/long-term; duration: 28 days; growth
Typhlodromus pyri = test: LR50; higher = less toxic; conditions: not reported; mortality

Q: Which results are given for COC(=O)c1ccc(I)cc1S(=O)(=O)[N-]C(=O)Nc1nc(C)nc(OC)n1.[Na+] [Iodosulfuron methyl ester sodium salt]?
A: LD50 (Anas platyrhynchos): > 2000 mg/kg; LD50 (Apis mellifera; duration: 48 hours, dermal): > 100 µg/piece; LD50 (Apis mellifera; duration: 72 hours, oral, unspecified): > 70 µg/piece; NOAEL (Canidae): 7 mg/kg-day; LD50 (Colinus virginianus; acute, oral, mortality): > 2000 mg/kg; NOEL (Colinus virginianus; reproduction developmental, reproduction): 78 mg/kg-day; LD50 (Coturnix japonica): > 2000 mg/kg; NOEC (Folsomia candida): 316 mg/kg; LC50 (Oncorhynchus mykiss): 0.684 mg/L; NOAEC (Plant): 0.27 µg/L and 0.16 µg/L; LD50 (Rattus norvegicus; acute, Wistar, mortality): 2680 mg/kg; NOAEL (Rattus norvegicus; chronic, duration: 2 years, F, Wistar, body weight): 3.91 mg/kg-day; NOAEL (Rattus norvegicus; chronic, duration: 2 years, M, Wistar, body weight): 2.96 mg/kg-day; NOAEL (Rattus norvegicus; chronic, duration: 2 years, body weight): 3 mg/kg-day; NOAEL (Rattus norvegicus; developmental, development): 315 mg/kg-day; NOEC (Salmo trutta ssp. fario): 7.79 mg/L; LR50 (Typhlodromus pyri): > 30.3 g/ha
